Patent publication US8569229B2, “Compositions and methods which modulate G-protein signaling for the treatment of inflammatory disorders such as asthma and allergic conjunctivitis” (The Children's Hospital of Philadelphia, priority 2008, dated 2013)
“Also recorded” adds a separate entry of the source. Ends that are not written are not given here.

Experiments:
OVA-sensitized rabbits [1] = assay: Lung histopathology in OVA-sensitized, OVA-challenged rabbits; assay type: in vivo, rabbit; conditions: pretreated OVA-sensitized+OVA challenged rabbits
Description: Both the OVA sensitized and control animals were then challenged with either vehicle (saline) or aerosolized OVA delivered via a nebulizer. The following day, while mechanically ventilated under general anesthesia/paralysis, the rabbits' broncho-constrictor responses to intravenous (i.v.) bolus injections of cumulatively increasing doses of methacholine (MCh) were determined and induced changes in respiratory system resistance (Rrs), measured as previously described (Grunstein et al. J. Appl. Physiol: […]. Environ. Exercise Physiol. 57:1238-1246, 1984). Lung lavage was then performed to obtain bronchoalveolar lavage fluid (BALF) samples, and the lungs were excised for histological examination in H&E-stained paraffin-embedded 4 micron sections.

OVA-sensitized rabbits [2] = assay: Allergic conjunctivitis response to ocular OVA challenge in OVA-sensitized rabbits; assay type: in vivo, rabbit; conditions: 15 μl of 1 μM topically 20 minutes prior to OVA, examined at 60 minutes
Description: Similar to previous studies investigating either allergic asthma or allergic conjunctivitis in animal models, in vivo studies were conducted wherein adult NZW rabbits were initially systemically immunized with weekly intra-peritoneal (i.p.) injections of 2.5 mg ovalbumin (OVA) and 10 mg of alum adjuvant for 4-5 weeks. Following sensitization, as previously described in other animal models of allergic conjunctivitis (Groneberg D. A. et al. Allergy 58: 1101-1113, 2003), the OVA allergen was topically introduced into the conjunctival sac of the eyes of the rabbit to examine its ocular allergic inflammatory response. […] Accordingly, for each animal, 15 μl of a sterile 1 μM concentration of the MPS:anti-Gβγ peptide (prepared in PBS) was topically applied into the conjunctival sac of one eye 20 minutes prior to subsequent instillation of OVA (500 μg in 15 μl PBS), and the carrier MPS peptide alone (i.e., control “sham” pretreatment) was applied to the other eye 20 minutes prior to subsequent instillation of OVA. The eyes were then clinically examined for an acute ocular inflammatory response to OVA challenge and photographs were taken of each eye at 60 minutes following OVA challenge. […]

Substance: MPS-Phosducin-like protein C terminus (AAVALLPAVLLALLAVTDQLGEDFFAVDLEAFLQEFGLLPEKE; also: MPS attached) [anti-Gβγ peptide]
- effect on pulmonary inflammatory response (peribronchial and parenchymal inflammatory cell infiltration) (OVA-sensitized rabbits [1]): markedly suppressed to a similar extent; also recorded: markedly suppresses
- clinical signs of allergic conjunctivitis after ocular OVA challenge (OVA-sensitized rabbits [2]): virtually no clinical signs of conjunctival inflammation
- clinical signs of allergic conjunctivitis after ocular OVA challenge (OVA-sensitized rabbits [2]; listed as MPS-conjugated anti-Gβγ peptide): signs of allergic conjunctivitis are absent
